Assay results taken from the NIST ThermoML archive (doi:10.1016/j.jct.2015.01.014).
Numbers after ± are expanded uncertainties.

Settings: Liquid, Transpiration method

With `OCCCO` [propan-1,3-diol] the “vapor or sublimation pressure” value (292.5 K) was 0.00167 ± 0.00012 kPa, the “vapor or sublimation pressure” value (296.4 K) was 0.00239 ± 0.00015 kPa and the “vapor or sublimation pressure” value (300.4 K) was 0.00346 ± 0.00023 kPa. For the same compound, the “vapor or sublimation pressure” value (306.3 K) was 0.00584 ± 0.00041 kPa, the “vapor or sublimation pressure” value (338.7 K) was 0.08145 ± 0.0052 kPa and the “vapor or sublimation pressure” value (344.3 K) was 0.1208 ± 0.0077 kPa. For the same compound, the “vapor or sublimation pressure” value (346.4 K) was 0.139 ± 0.0087 kPa.
